Data set [1] has as its system Hepatotoxicity. Description: Literature-mined compound from Fourches et al multi-species drug-induced liver injury (DILI) dataset, effect in humans. The following applies: human.
The test system of data set [2] is Hepatotoxicity. The data set can be described thus: Literature-mined compound from Fourches et al multi-species drug-induced liver injury (DILI) dataset, effect in rodents. The following applies: rodentia.
For data set [3], the system named is Hepatotoxicity. The data set can be described thus: Literature-mined compound from Fourches et al multi-species drug-induced liver injury (DILI) dataset, effect in non-rodents.

Each structure is given as a SMILES string. Where a SMILES comes first, the peptide text is derived from it. Bridges are numbered along the chain shown (N, C = ends). [ ]: non-standard residue; d: D form. The star is where a group is joined. Ileψ(thiazoline)Cys = CC[C@H](C)[C@H](N)C1=N[C@H](C(=O)*)CS1; dOrn = NCCC[C@@H](N)C(=O)O

Regarding `O=C1O[C@H]([C@@H](O)CO)C(O)=C1O` [ASCORBIC ACID], the Hepatotoxicity entry in data set [1], in data set [2] and in data set [3] was “drug-induced liver injury reported” throughout.

For `CC(=O)Oc1ccccc1C(=O)O.NCCCCC(N)C(=O)O` [ASPIRIN DL-LYSINE], the values for the Hepatotoxicity result in data set [1], in data set [2] and in data set [3] were “drug-induced liver injury reported”, “drug-induced liver injury reported” and “no drug-induced liver injury reported”, respectively.

Consider `CC(=O)Oc1ccccc1C(=O)O` [ASPIRIN], for which the Hepatotoxicity result in data set [1], in data set [2] and in data set [3] was “drug-induced liver injury reported” each time.

Turning to `CC1=C(/C=C/C(C)=C/C=C/C(C)=C/C=C/C=C(C)/C=C/C=C(C)/C=C/C2=C(C)C(=O)[C@@H](O)CC2(C)C)C(C)(C)C[C@H](O)C1=O` [ASTAXANTHIN], the Hepatotoxicity entry is recorded as “no drug-induced liver injury reported” in data set [1], “drug-induced liver injury reported” in data set [2] and “no drug-induced liver injury reported” in data set [3].

Turning to `COC(=O)N[C@H](C(=O)N[C@@H](Cc1ccccc1)[C@@H](O)CN(Cc1ccc(-c2ccccn2)cc1)NC(=O)[C@@H](NC(=O)OC)C(C)(C)C)C(C)(C)C` [ATAZANAVIR], the Hepatotoxicity result in data set [1] is “drug-induced liver injury reported”; in data set [2] it was “no drug-induced liver injury reported”; in data set [3] it was “no drug-induced liver injury reported”.

Turning to `CC(C)NCC(O)COc1ccc(CC(N)=O)cc1` (stereo not given) [ATENOLOL], the Hepatotoxicity result is given as “drug-induced liver injury reported” in data set [1] (Liver), “no drug-induced liver injury reported” in data set [2] (Liver) and “no drug-induced liver injury reported” in data set [3] (Liver).

On to `CCCC1(CCC)CCC2(CCN(CCCN(CC)CC)C2)CC1` [ATIPRIMOD], for which the Hepatotoxicity result was “drug-induced liver injury reported” in data set [1], “no drug-induced liver injury reported” in data set [2] and “no drug-induced liver injury reported” in data set [3].

Consider `CNCC[C@@H](Oc1ccccc1C)c1ccccc1.Cl` [ATOMOXETINE HYDROCHLORIDE], for which the Hepatotoxicity entry in data set [1] is “drug-induced liver injury reported”; in data set [2], “no drug-induced liver injury reported”; in data set [3] it was “no drug-induced liver injury reported”.

As for `CC(C)c1c(C(=O)Nc2ccccc2)c(-c2ccccc2)c(-c2ccc(F)cc2)n1CC[C@@H](O)C[C@@H](O)CC(=O)O` [ATORVASTATIN], the Hepatotoxicity result in data set [1] (Liver), in data set [2] (Liver) and in data set [3] (Liver) was “drug-induced liver injury reported” throughout.

Turning to `CC(C)c1cc(C(C)C)c(CC(=O)NS(=O)(=O)Oc2c(C(C)C)cccc2C(C)C)c(C(C)C)c1` [AVASIMIBE], the Hepatotoxicity entry in data set [1] was “drug-induced liver injury reported”; in data set [2] it was “drug-induced liver injury reported”; in data set [3] it was “no drug-induced liver injury reported”.

Turning to `Nc1ncn([C@@H]2O[C@H](CO)[C@@H](O)[C@H]2O)c(=O)n1` [AZACITIDINE], the Hepatotoxicity result is recorded as “drug-induced liver injury reported” in data set [1] (Liver), “drug-induced liver injury reported” in data set [2] (Liver) and “no drug-induced liver injury reported” in data set [3] (Liver).

For the compound `Cn1cnc([N+](=O)[O-])c1Sc1ncnc2nc[nH]c12` [AZATHIOPRINE], the Hepatotoxicity entry was “drug-induced liver injury reported” in data set [1] (Liver), “drug-induced liver injury reported” in data set [2] (Liver) and “no drug-induced liver injury reported” in data set [3] (Liver).

Take `CC[C@H]1OC(=O)[C@H](C)[C@@H](O[C@H]2C[C@@](C)(OC)[C@@H](O)[C@H](C)O2)[C@H](C)[C@@H](O[C@@H]2O[C@H](C)C[C@H](N(C)C)[C@H]2O)[C@](C)(O)C[C@@H](C)CN(C)[C@H](C)[C@@H](O)[C@]1(C)O` [AZITHROMYCIN]: the figures for the Hepatotoxicity entry in data set [1], in data set [2] and in data set [3] were “drug-induced liver injury reported”, “no drug-induced liver injury reported” and “no drug-induced liver injury reported”, respectively.

For `CC1(C)S[C@@H]2[C@H](NC(=O)[C@H](NC(=O)N3CCNC3=O)c3ccccc3)C(=O)N2[C@H]1C(=O)O` [AZLOCILLIN], the results for the Hepatotoxicity entry in data set [1], in data set [2] and in data set [3] were “drug-induced liver injury reported”, “no drug-induced liver injury reported” and “no drug-induced liver injury reported”, respectively.

As for `C[C@H]1[C@H](NC(=O)/C(=N\OC(C)(C)C(=O)O)c2csc(N)n2)C(=O)N1S(=O)(=O)O` [AZTREONAM], the Hepatotoxicity result in data set [1] is listed as “drug-induced liver injury reported”; in data set [2], “no drug-induced liver injury reported”; in data set [3] it was “no drug-induced liver injury reported”.

Regarding `CC[C@H](C)[C@H](N)C1=N[C@H](C(=O)N[C@@H](CC(C)C)C(=O)N[C@H](CCC(=O)O)C(=O)N[C@H](C(=O)N[C@H]2CCCCNC(=O)[C@H](CC(N)=O)NC(=O)[C@@H](CC(=O)O)NC(=O)[C@H](Cc3cnc[nH]3)NC(=O)[C@@H](Cc3ccccc3)NC(=O)[C@H]([C@@H](C)CC)NC(=O)[C@@H](CCCN)NC2=O)[C@@H](C)CC)CS1` [BACITRACIN] ({Ileψ(thiazoline)Cys}-L[dE]IK[dOrn]I[dF]H[dD]N; lactam 4-C), the Hepatotoxicity result in data set [1] is recorded as “no drug-induced liver injury reported”; in data set [2], “drug-induced liver injury reported”; in data set [3], “no drug-induced liver injury reported”.

For the compound `NCC(CC(=O)O)c1ccc(Cl)cc1` (stereo not given) [BACLOFEN], the Hepatotoxicity result in data set [1] is on record as “drug-induced liver injury reported”; in data set [2] it was “no drug-induced liver injury reported”; in data set [3] it was “no drug-induced liver injury reported”.

Take `CCC1(CC)C(=O)NC(=O)NC1=O` [BARBITAL]: the Hepatotoxicity entry in data set [1] is “no drug-induced liver injury reported”; in data set [2], “drug-induced liver injury reported”; in data set [3] it was “no drug-induced liver injury reported”.

As for `Cn1c(CCCC(=O)O)nc2cc(N(CCCl)CCCl)ccc21` [BENDAMUSTINE], the Hepatotoxicity result in data set [1] is “drug-induced liver injury reported”; in data set [2], “no drug-induced liver injury reported”; in data set [3] it was “no drug-induced liver injury reported”.

Take `O=C(O)COc1nn(Cc2ccccc2)c2ccccc12` [BENDAZAC]: the Hepatotoxicity entry is recorded as “drug-induced liver injury reported” in data set [1] (Liver), “no drug-induced liver injury reported” in data set [2] (Liver) and “no drug-induced liver injury reported” in data set [3] (Liver).

Consider `CC(=O)Nc1ccc(OC(=O)c2ccccc2OC(C)=O)cc1` [BENORILATE], for which the Hepatotoxicity entry is “no drug-induced liver injury reported” in data set [1], “drug-induced liver injury reported” in data set [2] and “no drug-induced liver injury reported” in data set [3].

For `CC(C(=O)O)c1ccc2oc(-c3ccc(Cl)cc3)nc2c1` (stereo not given) [BENOXAPROFEN], the Hepatotoxicity result in data set [1] is listed as “drug-induced liver injury reported”; in data set [2], “drug-induced liver injury reported”; in data set [3], “no drug-induced liver injury reported”.

For `CCc1oc2ccccc2c1C(=O)c1ccc(O)cc1` [BENZARONE], the Hepatotoxicity entry is “drug-induced liver injury reported” in data set [1], “drug-induced liver injury reported” in data set [2] and “no drug-induced liver injury reported” in data set [3].

For `CCc1oc2ccccc2c1C(=O)c1cc(Br)c(O)c(Br)c1` [BENZBROMARONE], the figures for the Hepatotoxicity result in data set [1], in data set [2] and in data set [3] were “drug-induced liver injury reported”, “drug-induced liver injury reported” and “no drug-induced liver injury reported”, respectively.

Turning to `CCc1oc2ccccc2c1C(=O)c1cc(I)c(O)c(I)c1` [BENZIODARONE], the Hepatotoxicity entry in data set [1] is given as “no drug-induced liver injury reported”; in data set [2], “drug-induced liver injury reported”; in data set [3], “no drug-induced liver injury reported”.

In the case of `O=C(OOC(=O)c1ccccc1)c1ccccc1` [BENZOYL PEROXIDE], the results for the Hepatotoxicity result in data set [1], in data set [2] and in data set [3] were “no drug-induced liver injury reported”, “drug-induced liver injury reported” and “no drug-induced liver injury reported”, respectively.

`CC#CCC(C)[C@H](O)/C=C/[C@@H]1[C@H]2c3cccc(CCCC(=O)O)c3O[C@H]2C[C@H]1O` (stereo not given in full) [BERAPROST]: the Hepatotoxicity result in data set [1] is “no drug-induced liver injury reported”; in data set [2], “drug-induced liver injury reported”; in data set [3], “no drug-induced liver injury reported”.

For `CC1=C(/C=C/C(C)=C/C=C/C(C)=C/C=C/C=C(C)/C=C/C=C(C)/C=C/C2=C(C)CCCC2(C)C)C(C)(C)CCC1` [BETA CAROTENE], the Hepatotoxicity entry in data set [1], in data set [2] and in data set [3] was “drug-induced liver injury reported” each time.

Consider `CC[C@H](CC[C@@H](C)[C@H]1CC[C@H]2[C@@H]3CC=C4C[C@@H](O)CC[C@]4(C)[C@H]3CC[C@]12C)C(C)C` [BETA-SITOSTEROL], for which the Hepatotoxicity result is given as “drug-induced liver injury reported” in data set [1], “drug-induced liver injury reported” in data set [2] and “no drug-induced liver injury reported” in data set [3].

Take `C[N+](C)(C)CC(=O)O` [BETAINE]: the Hepatotoxicity entry in data set [1] is on record as “no drug-induced liver injury reported”; in data set [2] it was “drug-induced liver injury reported”; in data set [3], “no drug-induced liver injury reported”.

Source of the values: ChEMBL document CHEMBL1697731, “Cheminformatics analysis of assertions mined from literature that describe drug-induced liver injury in different species” (Chem Res Toxicol, 2010).
